Tests used:
[1] = rats; cited from earlier work
[2] = cited from earlier work
[3] = cited from earlier work; remark: listed apart in the source
[4] = rat, in vivo, po, 20 mg/kg
Method: The single oral dose of reference Olmesartan Medoxomil was 20 mg/kg, and that of nanostructured Olmesartan Medoxomil formulation was 75.8 mg/kg which corresponds to 20 mg/kg active agent. Both test substances were administered via gastric tube in a dosing volume of 5 ml/kg. The vehicle of the test items was sterile 0.9% NaCl solution supplemented with 0.25% methylcellulose and the suspension was kept homogenous by continuous stirring during treatment in order to minimize the error resulting from the sedimentation.
Male Wistar rats (purchased from Laboratory Animal Center, University of Szeged) were maintained on a standard pellet rodent diet (Bioplan Ltd, Isaszeg, Hungary) under temperature and light-controlled conditions with tap water available ad libitum. The acclimatization period was at least 4 days. Rats were randomized into groups of 6 and each group was used for blood sampling at different time period after Olmesartan Medoxomil treatment. All animals were fasting for 16 hours before oral treatment. […]
An aliquot of 200 μl serum was combined with 20 μl of internal standard working solution and 1.2 ml methanol for protein precipitation. […] Serum Olmesartan concentrations were determined using a standard curve set up from Olmesartan prepared from Olmesartan Medoxomil by enzymatic hydrolysis. […]

[5] = cited from earlier work; remark: listed apart in the source

## CCCc1nc(C(C)(C)O)c(C(=O)O)n1Cc1ccc(-c2ccccc2-c2nnn[nH]2)cc1 [Olmesartan]
[1]
  crossing of the blood-brain barrier: crossed the blood-brain barrier poorly, if at all
  distribution to milk: distributed to milk at low levels
  passage across the placental barrier: passed across the placental barrier
[2]
  bound to plasma proteins: 99%
[3]; in vivo
  absolute bioavailability: approximately 26%
  effect of food on bioavailability: Food does not affect the bioavailability
  renal clearance: 0.6 L/h
  terminal elimination half-life: approximately 13 hours
  total plasma clearance: 1.3 L/h
[3]; once-daily dosing
  accumulation in plasma: no accumulation in plasma

## CCCc1nc(C(C)(C)O)c(C(=O)OCc2oc(=O)oc2C)n1Cc1ccc(-c2ccccc2-c2nnn[nH]2)cc1 [Olmesartan Medoxomil, 2,3-dihydroxy-2-butenyl 4-(1-hydroxy-1-methylethyl)-2-propyl-1-[p-(o-1H-tetrazol-5-ylphenyl)benzyl]imidazole-5-carboxylate, cyclic 2,3-carbonate]
[4]
  Area under the serum concentration curve between 15 and 360 min (AUC15-360 min): 382.5 µg·min/mL
  tmax: 2 h
[5]; methanol
  solubility in methanol: sparingly soluble
[5]; water
  solubility in water: practically insoluble

— patent US20120148637A1, “NANOPARTICULATE OLMESARTAN MEDOXOMIL COMPOSITIONS, PROCESS FOR THE PREPARATION THEREOF AND PHARMACEUTICAL COMPOSITIONS CONTAINING THEM” (priority 2009, published 2012)
